Assays:
Test in all cases: relative viability (nuclei count vs DMSO), 5 days (fraction); higher = more cells survive
NCI-H1734 = system: NCI-H1734
Outline: (§1)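 A single step with final 0.05% Triton X-100, 1% formaldehyde and 1 ug/ml Hoechst fixed the cells and stained nuclei 5 days after treatment. Lung cancer cell lines in 1536-well plates had been treated by pin tool the day after seeding with one drug alone or a fixed anchor-drug dose plus five library-drug doses (not always all listed) in √10 steps, and nuclei were counted on 4× images. Relative viability is the ratio of nuclei in treated wells to nuclei in vehicle wells, taken as the median of duplicate plates.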

UMC-11 = system: UMC-11
Outline: as §1

NCI-H2347 = system: NCI-H2347
Outline: as §1

NCI-H1993 = system: NCI-H1993
Outline: as §1

SK-LU-1 = system: SK-LU-1
Outline: as §1

A-427 = system: A-427
Outline: as §1

SW 1573 = system: SW 1573
Outline: as §1

NCI-H1792 = system: NCI-H1792
Outline: as §1

LCLC-103H = system: LCLC-103H
Outline: as §1

NCI-H2228 = system: NCI-H2228
Outline: as §1

LC-2-ad = system: LC-2-ad
Outline: as §1

NCI-H1915 = system: NCI-H1915
Outline: as §1

RERF-LC-KJ = system: RERF-LC-KJ
Outline: as §1

NCI-H1975 = system: NCI-H1975
Outline: as §1

NCI-H23 = system: NCI-H23
Outline: as §1

HCC-366 = system: HCC-366
Outline: as §1

NCI-H1755 = system: NCI-H1755
Outline: as §1

NCI-H1355 = system: NCI-H1355
Outline: as §1

NCI-H650 = system: NCI-H650
Outline: as §1

SK-MES-1 = system: SK-MES-1
Outline: as §1

HCC-827 = system: HCC-827
Outline: as §1

For CN1CCN(CCOc2cc(OC3CCOCC3)c3c(Nc4c(Cl)ccc5c4OCO5)ncnc3c2)CC1 [Saracatinib] + C[C@]1(O)C[C@@H](c2nc(-c3ccc4ccc(-c5ccccc5)nc4c3)c3c(N)nccn32)C1 [Linsitinib] (partner 1 µM), the relative viability (NCI-H1734; first compound 0.02 µM) was 0.908, the relative viability (NCI-H1734; first compound 0.6325 µM) was 0.713 and the relative viability (NCI-H1734; first compound 2 µM) was 0.751. It also gave a relative viability (UMC-11; first compound 0.02 µM) of 1.09, a relative viability (UMC-11; first compound 0.6325 µM) of 0.956 and a relative viability (UMC-11; first compound 2 µM) of 0.8. The relative viability (NCI-H2347; first compound 0.02 µM) was 0.916, the relative viability (NCI-H2347; first compound 0.2 µM) was 0.902 and the relative viability (NCI-H2347; first compound 0.6325 µM) was 1.13. The relative viability (NCI-H2347; first compound 2 µM) was 0.936, the relative viability (NCI-H1993; first compound 0.02 µM) was 0.682 and the relative viability (NCI-H1993; first compound 0.2 µM) was 0.715. The relative viability (NCI-H1993; first compound 2 µM) was 0.621, the relative viability (SK-LU-1; first compound 0.02 µM) was 0.92 and the relative viability (SK-LU-1; first compound 0.2 µM) was 0.752. It also gave a relative viability (SK-LU-1; first compound 0.6325 µM) of 0.639, a relative viability (SK-LU-1; first compound 2 µM) of 0.374 and a relative viability (A-427; first compound 0.02 µM) of 1.03. For the same molecule, the relative viability (A-427; first compound 0.2 µM) was 1.08, the relative viability (A-427; first compound 0.6325 µM) was 1.12 and the relative viability (A-427; first compound 2 µM) was 1.11. It also gave a relative viability (SW 1573; first compound 0.02 µM) of 0.846, a relative viability (SW 1573; first compound 0.2 µM) of 0.673 and a relative viability (SW 1573; first compound 0.6325 µM) of 0.699. The relative viability (SW 1573; first compound 2 µM) was 0.64, the relative viability (NCI-H1792; first compound 0.02 µM) was 0.533 and the relative viability (NCI-H1792; first compound 0.2 µM) was 0.374. For the same molecule, the relative viability (NCI-H1792; first compound 0.6325 µM) was 0.647, the relative viability (NCI-H1792; first compound 2 µM) was 0.384 and the relative viability (LCLC-103H; first compound 0.02 µM) was 1.18. For the same molecule, the relative viability (LCLC-103H; first compound 0.2 µM) was 0.873, the relative viability (LCLC-103H; first compound 0.6325 µM) was 1.04 and the relative viability (LCLC-103H; first compound 2 µM) was 1.04. It also gave a relative viability (NCI-H2228; first compound 0.02 µM) of 0.806, a relative viability (NCI-H2228; first compound 0.2 µM) of 0.704 and a relative viability (NCI-H2228; first compound 0.6325 µM) of 0.574. It also gave a relative viability (NCI-H2228; first compound 2 µM) of 0.392, a relative viability (LC-2-ad; first compound 0.02 µM) of 0.971 and a relative viability (LC-2-ad; first compound 0.6325 µM) of 0.689. For the same molecule, the relative viability (LC-2-ad; first compound 2 µM) was 0.541, the relative viability (NCI-H1915; first compound 0.02 µM) was 1.1 and the relative viability (NCI-H1915; first compound 0.2 µM) was 1.03. For the same molecule, the relative viability (NCI-H1915; first compound 0.6325 µM) was 1.07, the relative viability (NCI-H1915; first compound 2 µM) was 1.07 and the relative viability (RERF-LC-KJ; first compound 0.02 µM) was 0.938. It also gave a relative viability (RERF-LC-KJ; first compound 0.2 µM) of 0.83, a relative viability (RERF-LC-KJ; first compound 0.6325 µM) of 0.883 and a relative viability (RERF-LC-KJ; first compound 2 µM) of 0.813. The relative viability (NCI-H1975; first compound 0.02 µM) was 0.953, the relative viability (NCI-H1975; first compound 0.6325 µM) was 0.95 and the relative viability (NCI-H1975; first compound 2 µM) was 0.478. For the same molecule, the relative viability (NCI-H23; first compound 0.02 µM) was 0.58, the relative viability (NCI-H23; first compound 0.6325 µM) was 0.558 and the relative viability (NCI-H23; first compound 2 µM) was 0.466. For the same molecule, the relative viability (HCC-366; first compound 0.02 µM) was 0.607, the relative viability (HCC-366; first compound 0.6325 µM) was 0.283 and the relative viability (HCC-366; first compound 2 µM) was 0.13. For the same molecule, the relative viability (NCI-H1755; first compound 0.02 µM) was 1, the relative viability (NCI-H1755; first compound 0.2 µM) was 0.707 and the relative viability (NCI-H1755; first compound 0.6325 µM) was 0.95. The relative viability (NCI-H1755; first compound 2 µM) was 0.896, the relative viability (NCI-H1355; first compound 0.02 µM) was 0.793 and the relative viability (NCI-H1355; first compound 0.2 µM) was 0.767. The relative viability (NCI-H1355; first compound 0.6325 µM) was 0.832, the relative viability (NCI-H1355; first compound 2 µM) was 0.615 and the relative viability (NCI-H650; first compound 0.02 µM) was 0.94. For the same molecule, the relative viability (NCI-H650; first compound 0.2 µM) was 0.885, the relative viability (NCI-H650; first compound 0.6325 µM) was 0.838 and the relative viability (NCI-H650; first compound 2 µM) was 0.98. The relative viability (SK-MES-1; first compound 0.02 µM) was 0.934, the relative viability (SK-MES-1; first compound 0.2 µM) was 0.903 and the relative viability (SK-MES-1; first compound 0.6325 µM) was 0.87. For the same molecule, the relative viability (SK-MES-1; first compound 2 µM) was 0.471, the relative viability (HCC-827; first compound 0.02 µM) was 0.981 and the relative viability (HCC-827; first compound 0.2 µM) was 0.739. The relative viability (HCC-827; first compound 0.6325 µM) was 0.338 and the relative viability (HCC-827; first compound 2 µM) was 0.158.

Reference: the supplement of paper PMC10307832
